Patent US20070184519A1, “Peptides, polypeptides, and proteins of reduced immunogenicity and methods for their production” (priority 2003, published 2007)
Where two headings read alike, the source gives them in different places.

Columns and labels:
[1] = cited from earlier work
DRB1*0701 = molecular target: T1, DRB1*0701 (Homo sapiens, UniProt P01903+P01911, A100R/A102G/A103Q/D57E/D86V/E43K/F76Y/K127E/L162R/M171V/P40G/Q125H/Q99D/R33Q/R42Y/R54Q/S133A/S66F/T210M/V115G/Y107V/Y59L/Y89S); assay: Class II peptide-binding assay DRB1*0701 (DR7)
T1 construct: Epstein-Barr virus (EBV) transformed homozygous cell lines were used as sources of human HLA Class II molecules; endogenous in cells; host or cells: PITOUT (EBV-transformed homozygous B cell line)

DRB1*1302 = molecular target: T2, DRB1*1302 (Homo sapiens, UniProt P01903+P01911, A100E/A169T/K41T/L162R/M171V/P40S/Q125H/Q178H/Q39Y/Q99D/R42S/S66N/T262R/V115G/W38E/Y61H); assay: Class II peptide-binding assay DRB1*1302 (DR6w19)
T2 construct: Epstein-Barr virus (EBV) transformed homozygous cell lines were used as sources of human HLA Class II molecules; endogenous in cells; host or cells: HO301 / H0301 (EBV-transformed homozygous B cell line)
T2 sequence (P01903 26-254, other chains not shown): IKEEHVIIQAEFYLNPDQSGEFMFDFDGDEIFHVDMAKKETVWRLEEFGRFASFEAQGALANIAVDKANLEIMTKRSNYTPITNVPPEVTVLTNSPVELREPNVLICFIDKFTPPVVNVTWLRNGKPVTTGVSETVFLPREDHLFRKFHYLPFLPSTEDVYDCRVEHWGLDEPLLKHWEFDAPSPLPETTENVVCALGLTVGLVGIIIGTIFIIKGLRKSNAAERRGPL

DRB1*1101 = molecular target: T3, DRB1*1101 (Homo sapiens, UniProt P01903+P01911, A100R/A169T/A87E/I96F/K41T/L162R/M171V/P40S/Q125H/Q178H/Q39Y/Q99D/R42S/S66Y/T262R/V115G/W38E); assay: Class II peptide-binding assay DRB1*1101 (DR5w11)
T3 construct: Epstein-Barr virus (EBV) transformed homozygous cell lines were used as sources of human HLA Class II molecules; endogenous in cells; host or cells: SWEIG (EBV-transformed homozygous B cell line)
T3 sequence (P01903 26-254, other chains not shown): as above

DRB1*0901 = DRB1*0901 (Homo sapiens, UniProt P01903+P01911, A100R/A103E/D57H/D86V/F55Y/F60I/F76Y/I96F/K127E/L162R/M171V/P40D/Q125H/Q99R/R33Q/R42F/S133A/S66N/T210M/V115G/W38K/Y107V/Y59G/Y89S); assay: Class II peptide-binding assay DRB1*0901 (DR9)
DRB1*0802 = molecular target: T4, DRB1*0802 (Homo sapiens, UniProt P01903+P01911, A100R/A103L/A169T/F76Y/H45Y/I96F/K41T/L162R/M171V/P40S/Q125H/Q178H/Q39Y/Q99D/R218S/R42G/S66Y/V115G/W38E); assay: Class II peptide-binding assay DRB1*0802 (DR8w2)
T4 construct: Epstein-Barr virus (EBV) transformed homozygous cell lines were used as sources of human HLA Class II molecules; endogenous in cells; host or cells: OLL (EBV-transformed homozygous B cell line)

DRB1*0401 = molecular target: T5, DRB1*0401 (Homo sapiens, UniProt P01903+P01911, A100K/A169T/F76Y/I96L/K127E/L162R/M171V/N62H/P40V/Q125Y/R42H/S133A/S149N/S66Y/V115G/V209L/W38E); assay: Class II peptide-binding assay DRB1*0401 (DR4w4)
T5 construct: Epstein-Barr virus (EBV) transformed homozygous cell lines were used as sources of human HLA Class II molecules; endogenous in cells; host or cells: PREISS (EBV-transformed homozygous B cell line)

DRB1*0301 = molecular target: T6, DRB1*0301 (Homo sapiens, UniProt P01903+P01911, A100K/A102G/A103R/A169T/F55Y/I96L/K41T/L162R/M171V/P40S/Q125H/Q178H/Q39Y/R42S/S66N/T106N/T262R/W38E/Y61H); assay: Class II peptide-binding assay DRB1*0301 (DR3)
T6 construct: Epstein-Barr virus (EBV) transformed homozygous cell lines were used as sources of human HLA Class II molecules; endogenous in cells; host or cells: MAT (EBV-transformed homozygous B cell line)
T6 sequence (P01903 26-254, other chains not shown): as above

DRB5*0101 = molecular target: T7, DRB5*0101 (Homo sapiens, UniProt P01903+Q30154); assay: Class II peptide-binding assay DRB5*0101 (DR2w2a)
T7 construct: Epstein-Barr virus (EBV) transformed homozygous cell lines were used as sources of human HLA Class II molecules; endogenous in cells; host or cells: GM3107 (EBV-transformed homozygous B cell line)

DRB1*1501 = molecular target: T8, DRB1*1501 (Homo sapiens, UniProt P01903+P01911); assay: Class II peptide-binding assay DRB1*1501 (DR2w2b)
T8 construct: expressed in transfected cells; host or cells: transfected fibroblasts L466.1

DRB1*0101 = molecular target: T9, DRB1*0101 (Homo sapiens, UniProt P01903+P01911, A100R/D57E/F55L/F60I/F76Y/I96L/L162R/M171V/P40L/Q125E/R42F/V115G/Y59C); assay: Class II peptide-binding assay DRB1*0101 (DR1)
T9 construct: Epstein-Barr virus (EBV) transformed homozygous cell lines were used as sources of human HLA Class II molecules; endogenous in cells; host or cells: LG2 (EBV-transformed homozygous B cell line)

DRB1*0405 = molecular target: T10, DRB1*0405 (Homo sapiens, UniProt P01903+P01911, A100R/A169T/D86S/F76Y/I96L/K127E/L162R/M171V/N62H/P40V/Q125Y/R42H/S133A/S149N/S66Y/V115G/V209L/W38E); assay: Class II peptide-binding assay DRB1*0405 (DR4w15)
T10 construct: Epstein-Barr virus (EBV) transformed homozygous cell lines were used as sources of human HLA Class II molecules; endogenous in cells; host or cells: KT3 (EBV-transformed homozygous B cell line)

DRB4*0101 = molecular target: T11, DRB4*0101 (Homo sapiens, UniProt P01903+P13762, G164S); assay: Class II peptide-binding assay DRB4*0101 (DRw53)
T11 construct: expressed in transfected cells; host or cells: transfected fibroblasts L257.6

DRB3*0101 = molecular target: T12, DRB3*0101 (Homo sapiens, UniProt P01903+P79483); assay: Class II peptide-binding assay DRB3*0101 (DR52a)
T12 construct: expressed in transfected cells; host or cells: transfected fibroblasts TR81.19

DRB1*0404 = molecular target: T13, DRB1*0404 (Homo sapiens, UniProt P01903+P01911, A100R/A169T/F76Y/I96L/K127E/L162R/M171V/N62H/P40V/Q125Y/R42H/S133A/S149N/S66Y/V209L/W38E); assay: Class II peptide-binding assay DRB1*0404 (DR4w14)
T13 construct: Epstein-Barr virus (EBV) transformed homozygous cell lines were used as sources of human HLA Class II molecules; endogenous in cells; host or cells: BIN40 (EBV-transformed homozygous B cell line)

[2] = scientific publications, package insert, FDA documents, patent applications

hGH: 191 amino acid protein produced by recombinant DNA technology
patients developing antibodies ([1]; human, in vivo): Thirty | Immunogenicity (documented) [1, 2]: YES

Calcitonin: 32 amino acid polypeptide derived from salmon origin
Immunogenicity (documented) ([1]; human, in vivo): YES

Insulin: human insulin, alpha and beta chains
Immunogenicity (documented) [1, 2]: YES

CC(C)C[C@H](NC(=O)[C@@H]1CCCN1)C(=O)NCC(=O)N[C@@H](Cc1ccccc1)C(=O)N[C@@H](Cc1ccccc1)C(=O)N1CCC[C@H]1C(=O)N[C@@H](CC(=O)O)C(=O)N[C@@H](Cc1c[nH]cn1)C(=O)N[C@@H](CCC(N)=O)C(=O)N[C@@H](CC(C)C)C(=O)N[C@@H](CC(=O)O)C(=O)N1CCC[C@H]1C(=O)N[C@@H](C)C(=O)N[C@@H](Cc1ccccc1)C(=O)NCC(=O)N[C@@H](C)C(=O)N[C@@H](CC(N)=O)C(=O)N[C@@H](CO)C(=O)N[C@@H](CC(N)=O)C(=O)N[C@@H](CC(N)=O)C(=O)N1CCC[C@H]1C(=O)N[C@@H](CC(=O)O)C(=O)N[C@@H](Cc1c[nH]c2ccccc12)C(=O)N[C@@H](CC(=O)O)C(=O)N[C@@H](Cc1ccccc1)C(=O)N[C@@H](CC(N)=O)C(=O)N1CCC[C@H]1C(=O)O
IC50 (DRB1*0701): > 20 µM | IC50 (DRB1*1302): > 10 µM | IC50 (DRB1*1101): > 20 µM | IC50 (DRB1*0901): 15.7 µM | IC50 (DRB1*0802): > 20 µM | IC50 (DRB1*0401): > 20 µM | IC50 (DRB1*0301): > 20 µM | IC50 (DRB5*0101): > 20 µM | IC50 (DRB1*1501): 1.98 µM | IC50 (DRB1*0101): > 20 µM | IC50 (DRB1*0405): 0.031 µM | IC50 (DRB4*0101): 3.14 µM | IC50 (DRB3*0101): 0.311 µM | IC50 (DRB1*0404): > 20 µM

B1: IFNβ: interferon beta (protein)
chain: MSYNLLGFLQRSSNCQCQKLLWQLNGRLEYCLKDRRNFDIPEEIKQLQQFQKEDAAVTIYEMLQNIFAIFRQDSSSTGWNETIVENLLANVYHQRNHLKTVLEEKLEKEDFTRGKRMSSLHLKRYYGRILHYLKAKEDSHCAWTIVRVEILRNFYVINRLTGYLRN
Immunogenicity (documented) [1, 2]: YES
